In assay [1] the test system is LXR-response element (LXRE)-driven reporter in CHO cells. The assay can be described thus: LXRE-driven luciferase reporter assay in CHO cells. The format is cell-based. Conditions: 10^–7 M. On the procedure:
The effects of vitamin D3 and L3 hydroxyderivatives were tested on the LXRE transcriptional activity using pGreenFire1-LXRE-in-ApoE Lentivirus (System Biosciences, Palo Alto, CA). This plasmid was transduced in CHO and HaCaT cells following the manufacture’s protocol and the cells used as a stable LXRE expressed tool. Briefly, the virus was transduced into the cells using TransDux MAX Lentivirus Transduction Enhancer (System Biosciences, Palo Alto, CA) and screened to select the transduced cells using puromycin. The transduced cells were treated with the compounds for 24 h in media containing 5% cFBS (charcoal-treated fetal bovine serum) and the luminescence was read by ONE-Glo Luciferase Assay System (Promega, Madison, WI) using Cytation 5 (BioTek, Winooski, VT).
(In a reporter assay the amount or activity of a reporter protein is the signal.)

For a further assay, the target named is T1, LBD of LXRβ (Homo sapiens, UniProt P55055).
T1 construct: purchased Thermo Fisher Scientific
T1 sequence (P55055 222-460 limits assumed): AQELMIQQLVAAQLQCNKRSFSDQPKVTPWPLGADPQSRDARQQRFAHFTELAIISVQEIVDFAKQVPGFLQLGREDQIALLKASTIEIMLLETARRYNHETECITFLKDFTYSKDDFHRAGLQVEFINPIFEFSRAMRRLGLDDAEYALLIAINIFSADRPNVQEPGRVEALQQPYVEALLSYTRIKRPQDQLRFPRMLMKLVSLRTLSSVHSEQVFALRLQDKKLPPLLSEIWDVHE
The assay can be described thus: LanthaScreen TR-FRET LXRβ coactivator assay (LXR binding assay). Conditions: agonist; average values; read-out: LXRβ EC50. The format is biochemical. As to the method: (§1) Binding assays of graded concentrations of vitamin D3 or lumisterol hydroxyderivatives to LXRα/β were performed using the LanthaScreen TR-FRET LXRα/β Coactivator kit (Thermo Fisher Scientific, Inc., Waltham, MA) following the manufacture’s protocol. Briefly, after addition of LXRα/β-LBD to the derivatives, a mixture of peptide (Fluorescein-TRAP220/DRIP-2 for LXRα or Fluorescein-D22 for LXRβ) and antibody (Tb-anti-GST) was added to the reaction followed by incubation in room temperature for 2 h. TR-FRET ratio was calculated by dividing the emission at 520 nm by the emission at 495 nm using Synergy neo2 (BioTek, Winooski, VT).
Background: TR-FRET usually uses a lanthanide donor and a delayed reading to cut background.

The target in the next assay is T2, LBD of LXRα (Homo sapiens, UniProt Q13133).
T2 construct: after addition of LXRα/β-LBD to the derivatives; purchased Thermo Fisher Scientific
T2 sequence (Q13133 209-447 limits assumed): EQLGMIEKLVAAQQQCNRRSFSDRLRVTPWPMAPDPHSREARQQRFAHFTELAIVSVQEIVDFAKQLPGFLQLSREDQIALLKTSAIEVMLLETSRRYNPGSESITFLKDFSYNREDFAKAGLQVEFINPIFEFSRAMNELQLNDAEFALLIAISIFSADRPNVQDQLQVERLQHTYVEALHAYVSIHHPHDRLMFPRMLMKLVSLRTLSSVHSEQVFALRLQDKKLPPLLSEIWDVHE
The assay can be described thus: LanthaScreen TR-FRET LXRα coactivator assay (LXR binding assay). The format is biochemical. Conditions: agonist; average values; read-out: LXRα EC50. On the procedure:
as §1

The subject of another assay is ABCA1. The assay can be described thus: qPCR of ABCA1 in HaCaT keratinocytes. The format is cell-based, human. Particulars: 10^–7 M. As to the method: HaCaT keratinocytes were cultured as described previously. For RNA isolation the cells were maintained in TPP tissue culture petri dishes (Ø60 mm, 22.1 cm^2) in DMEM containing 10% cFBC to reach semi-confluence and then exposed to 10^–7 M compounds or a corresponding concentration of ethanol solvent.
RNA isolated from either fibroblasts, HaCaT cells or brain was submitted for cDNA synthesis (High Capacity cDNA Reverse Transcription Kit with RNase Inhibitor, Applied Biosystems) following the manufacturers’ protocols. RT-PCR was carried out using Cyber green, in triplicates; as previously described. Approximately, 750 ng of cDNA was used for PCR reactions. GAPDH and CIC-B were used as internal controls. Primer sequences are listed in Supplementary Table 27. Data were analyzed using GraphPad Prism statistical software one way ANOVA or t-test, where appropriate; *p < 0.05; **p < 0.01; ***p < 0.001.

The target in a further assay is T3, LXRα (Homo sapiens, UniProt Q13133).
T3 construct: endogenous in cells; host or cells: HaCaT keratinocytes
T3 sequence (Q13133 1-447): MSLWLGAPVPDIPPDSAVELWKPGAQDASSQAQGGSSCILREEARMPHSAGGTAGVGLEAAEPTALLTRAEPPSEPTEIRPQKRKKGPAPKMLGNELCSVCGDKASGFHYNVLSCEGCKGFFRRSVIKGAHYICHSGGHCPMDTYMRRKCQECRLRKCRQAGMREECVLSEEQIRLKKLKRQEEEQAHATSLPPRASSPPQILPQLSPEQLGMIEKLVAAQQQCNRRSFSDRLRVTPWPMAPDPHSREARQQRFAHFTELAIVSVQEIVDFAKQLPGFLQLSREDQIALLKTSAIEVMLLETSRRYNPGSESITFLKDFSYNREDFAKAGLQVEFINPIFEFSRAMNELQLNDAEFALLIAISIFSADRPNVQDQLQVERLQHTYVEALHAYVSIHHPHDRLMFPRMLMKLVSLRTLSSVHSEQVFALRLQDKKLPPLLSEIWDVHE
The assay can be described thus: Ligand induced translocation of LXRα to the nucleus, immunofluorescence in HaCaT. Conditions: 10^−7 M, 24 h. The format is cell-based. As to the method:
(§2) HaCaT cells were plated in DMEM plus 5% cFBS either on a sterile glass cover slip placed in a well of a 6-well plates for immunofluorescence (IF) assays or TPP Petri dishes for image-stream flow cytometry, and treated with 10^–7 M D3- or L3-hydroxyderivatives or 0.1% ethanol (vehicle) as a negative control was added to each well, and the cells were incubated for 12 or 24 h at 37 °C with 5% CO2. For IF the cells were fixed in 4% paraformaldehyde for 15 min, incubated in 0.5% Triton X-100 in phosphate-buffered saline (PBS) for 5 min, and washed 3 times in PBS. After blocking with 2% bovine serum albumin (BSA) in PBS for 1 h at room temperature, the cells were treated with an anti-LXRα antibody (Novus Biologicals, LLC, Centennial, CO) at 1:200 in PBS supplemented with 2% BSA overnight in 4 °C. After washing the slides were incubated with a mouse anti-rabbit IgG-FITC (Santa Cruz Biotechnology, Inc, Dallas, TX) at 1:200 dilution for 1.5 h at 37 °C. After washing the slides were mounted using propidium iodide (PI) (Vector Labs, Burlingame, California) as a nuclear counterstain. The slides were examined using a KEYENCE America BZ-X710 Fluorescence Microscope (Itasca, IL). The images were subsequently analyzed using the JACoP plugin for colocalization analysis with ImageJ[74]. Five separate high-power field (40×) images were converted to grayscale and analyzed for each condition. Manders’ coefficient (M1), calculated using a preset threshold, was used to quantify the degree of colocalization between PI and LXRα with 0 representing no colocalization, and 1 representing perfect colocalization.

In a further assay the test system is LXRα/β. The assay can be described thus: Ligand induced translocation of LXRα/β to the nucleus, imaging flow cytometry in HaCaT. The format is cell-based, human. Conditions: 10^–7 M, 12 h. On the procedure:
as §2
For Image Stream II (Amnis, Seattle, WA, USA) cytometer analyses, HaCaT cells were detached and processed as previously described. The cells were fixed with paraformaldehyde and permeabilized in methanol containing buffer[78],[79] and Hoechst stain (r37165, ThermoFisher) and rabbit antibodies to LXRα/β (sc 377260, AF 647, SantaCruz) or VDR (sc-13133, AF 488, SantaCruz) as described previously. Data were analyzed using IDEAS software (Amnis, Seattle, WA, USA).
(Flow cytometry measures light scatter and fluorescence of single cells or particles in a stream.)

The next assay addresses T4, VDR (Homo sapiens, UniProt P11473).
T4 construct: endogenous in cells; host or cells: HaCaT keratinocytes
T4 sequence (P11473 1-427): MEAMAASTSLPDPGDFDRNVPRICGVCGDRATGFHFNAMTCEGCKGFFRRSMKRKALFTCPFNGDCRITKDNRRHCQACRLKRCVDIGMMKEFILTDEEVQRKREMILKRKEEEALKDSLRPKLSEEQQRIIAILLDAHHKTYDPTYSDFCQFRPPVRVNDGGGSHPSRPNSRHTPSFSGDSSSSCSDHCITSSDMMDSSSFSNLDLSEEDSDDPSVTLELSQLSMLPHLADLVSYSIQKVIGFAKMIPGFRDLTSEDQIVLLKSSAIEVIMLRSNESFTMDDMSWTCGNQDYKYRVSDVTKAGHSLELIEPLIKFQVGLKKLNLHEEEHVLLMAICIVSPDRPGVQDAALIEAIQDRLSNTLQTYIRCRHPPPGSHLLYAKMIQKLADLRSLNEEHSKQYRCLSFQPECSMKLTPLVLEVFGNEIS
The assay can be described thus: Translocation of VDR to the nucleus, imaging flow cytometry in HaCaT. The format is cell-based. Conditions: 10^–7 M, 12 h.

Turning to `C=C1C(=CC=C2CCCC3(C)C2CCC3C(C)(O)CCC(O)C(C)C)CC(O)CC1O` (stereo not drawn) [1,20,24(OH)3D3], in assay [1] (CHO and HaCaT cells (Fig. 4C)), the “LXRE luciferase (transcriptional) activity” value (shortened to “LXRE luciferase”) is listed as “strongest stimulatory effects”.

Broadly, the EC50 is the concentration at which the effect is half-maximal. Consider `C=C1C(=CC=C2CCCC3(C)C2CCC3C(C)(O)CCCC(C)(C)O)CC(O)CC1O` (stereo not drawn) [1,20,25(OH)3D3], for which, on LBD of LXRβ, the EC50 was found to be 0.0038 µM. Besides, the “LXRE luciferase” value in assay [1] (CHO and HaCaT cells (Fig. 4C)) was “strongest stimulatory effects”.

In the case of `C=C1CCC(O)CC1=CC=C1CCCC2(C)C1CCC2(O)C(C)O` (stereo not drawn) [17,20(OH)2pD], the EC50 on LBD of LXRα was determined as 30 µM; on LBD of LXRβ it was 2.6 µM. For the same molecule, the “LXRE luciferase” value in assay [1] (CHO cells) is recorded as “weakest stimulant”.

Consider `C=C1CC[C@H](O)C/C1=C/C=C1\CCC[C@]2(C)[C@@H]([C@H](C)CCCC(C)(C)O)CC[C@@H]12` [25(OH)D3, reference compound], for which the EC50 was determined as 0.011 µM at LBD of LXRα and 3.8 µM on LBD of LXRβ. Also, the “ABCA1 RNA expression (qPCR)” value in the assay with ABCA1 is “stimulation”. Also, the “translocation of LXRα to the nucleus (immunofluorescence, Manders' coefficient)” value at LXRα is “induced translocation”. For the same molecule, in the assay with LXRα/β, the “translocation of LXRα/β from the cytoplasm to the nucleus” value is recorded as “increased translocation”. Further, the “translocation of VDR from the cytoplasm to the nucleus” value on VDR was “increased translocation”.

Source of the values: article PMC8044163, “Vitamin D and lumisterol derivatives can act on liver X receptors (LXRs)” (Scientific Reports, 2021).
